The structures appear in SMILES notation.

This series deals with Liver microsomes. To be noted: human.
In turn, `N#Cc1cc(N2CCN(CCN3CCC(C(F)(F)F)CC3)C2=O)ccc1F` came in with a CL of 9.1 mL/min/g.
Then `N#Cc1cccc(N2CCN(CCN3Cc4ccccc4C3)C2=O)c1`, with 1.6 mL/min/g; and `O=C1N(CCN2Cc3ccccc3C2)CCN1c1cccc(Cl)c1`, with 8.9 mL/min/g; and `O=C1N(CCN2CCC(C(F)(F)F)CC2)CCN1c1cccc(Cl)c1`, with 17.6 mL/min/g.
Then `CC(C)N1CCN(CCN2CCN(c3cccc(C#N)c3)C2=O)CC1`, with under 0.5 mL/min/g.

For the origin of these results see ChEMBL document CHEMBL1152393, “Dopamine D(3) receptor antagonists: The quest for a potentially selective PET ligand. Part two: Lead optimization” (Bioorg Med Chem Lett, 2009).
